# In publication PMC11567786 (ACS chemical biology, 2024):
# What was measured:
# Sm-EboD [1] = target: T1, Sm-EboD (Sporocytophaga myxococcoides, UniProt P0DY70); assay: large-scale reaction, HR-MS, 1D and 2D NMR of isolated product; type: biochemical; conditions: NAD+, Co2+; Tris-HCl pH 7.5; 37°C
# T1 sequence (P0DY70 1-387): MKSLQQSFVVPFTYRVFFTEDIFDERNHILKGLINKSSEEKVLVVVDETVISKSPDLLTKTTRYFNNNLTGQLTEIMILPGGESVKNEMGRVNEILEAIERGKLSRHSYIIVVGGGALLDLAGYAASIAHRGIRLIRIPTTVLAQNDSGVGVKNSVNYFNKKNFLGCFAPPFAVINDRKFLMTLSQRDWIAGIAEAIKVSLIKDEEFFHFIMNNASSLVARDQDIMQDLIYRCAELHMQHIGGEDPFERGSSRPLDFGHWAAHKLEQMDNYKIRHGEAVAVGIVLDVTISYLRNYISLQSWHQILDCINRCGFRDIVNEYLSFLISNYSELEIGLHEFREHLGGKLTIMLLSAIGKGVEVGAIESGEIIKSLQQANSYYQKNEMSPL
# Sm-EboD [2] = target: T1, Sm-EboD; assay: TLC, product formation; type: biochemical; conditions: NAD+, Co2+; Tris-HCl pH 7.5; 37°C
Compound,"large-scale reaction, HR-MS, 1D and 2D NMR of isolated product (Sm-EboD [1])","TLC, product formation (Sm-EboD [2])"
"O=C1C[C@@H](O)[C@@H](O)[C@@H](O)[C@@H]1O [DEI, 2-deoxy-4-epi-scyllo-inosose]",revealed the identity of the compound to be 2-deoxy-4-epi-scyllo-inosose (DEI),–
O=P(O)(O)OC[C@H]1OC(O)[C@@H](O)[C@@H](O)[C@@H]1O (some centres unmarked) [Man6P],–,gave the same product with an even better conversion rate
